Test results: ChEMBL document CHEMBL1147118, “Efficacy of oseltamivir therapy in ferrets inoculated with different clades of H5N1 influenza virus” (2007)
Calls of active or inactive are those of the source. The calls are words filed in the database; no cut-off is given here.

Key:
[1] = system: Influenza A virus; assay: Antiviral activity against 10^2 EID50 influenza A/Vietnam/1203/04 H5N1 virus inoculated ferrets assessed as inhibition of virus spread in liver at 5 mg/kg after 4 hrs of inoculum for 5 days; format: functional, organism-based; set-up: dose 5 mg/kg
[2] = system: Influenza A virus; assay: Survival of 10 EID50 influenza A/Vietnam/1203/04 H5N1 virus inoculated ferrets at 5 mg/kg after 4 hrs of inoculum for 5 days; format: functional, organism-based; set-up: dose 5 mg/kg
[3] = system: Influenza A virus; assay: Survival of 10^2 EID50 influenza A/Vietnam/1203/04 H5N1 virus inoculated ferrets at 5 mg/kg after 4 hrs of inoculum for 5 days; format: functional, organism-based; set-up: dose 5 mg/kg
[4] = system: Influenza A virus; assay: Antiviral activity against 10 EID50 influenza A/Vietnam/1203/04 H5N1 virus inoculated ferrets assessed as day of death at 5 mg/kg after 4 hrs of inoculum for 5 days; format: functional
[5] = system: Influenza A virus; assay: Antiviral activity against 10^2 EID50 influenza A/Vietnam/1203/04 H5N1 virus inoculated ferrets assessed as day of death at 5 mg/kg after 4 hrs of inoculum for 5 days; format: functional
[6] = system: Influenza A virus; assay: Antiviral activity against 10 EID50 influenza A/Vietnam/1203/04 H5N1 virus inoculated ferrets assessed as weight loss at 5 mg/kg after 4 hrs of inoculum for 5 days; format: functional
[7] = system: Influenza A virus; assay: Antiviral activity against 10^2 EID50 influenza A/Vietnam/1203/04 H5N1 virus inoculated ferrets assessed as inhibition of viral replication in lungs at 5 mg/kg after 4 hrs of inoculum for 5 days; format: functional, organism-based; set-up: dose 5 mg/kg
[8] = system: Influenza A virus; assay: Antiviral activity against 10^2 EID50 influenza A/Vietnam/1203/04 H5N1 virus inoculated ferrets assessed as inhibition of virus spread in brain at 5 mg/kg after 4 hrs of inoculum for 5days; format: functional, organism-based; set-up: dose 5 mg/kg
[9] = system: Influenza A virus; assay: Antiviral activity against 10^2 EID50 influenza A/Vietnam/1203/04 H5N1 virus inoculated ferrets assessed as inhibition of virus spread in spleen at 5 mg/kg after 4 hrs of inoculum for 5 days; format: functional, organism-based; set-up: dose 5 mg/kg
[10] = system: Influenza A virus; assay: Antiviral activity against 10^2 EID50 influenza A/Vietnam/1203/04 H5N1 virus inoculated ferrets assessed as inhibition of viral replication in small intestine at 5 mg/kg after 4 hrs of inoculum for 5 days; format: functional, organism-based; set-up: dose 5 mg/kg
[11] = system: Influenza A virus; assay: Survival of 10^2 EID50 influenza A/Vietnam/1203/04 H5N1 virus inoculated ferrets at 10 mg/kg after 24 hrs of inoculum for 5 days; format: functional, organism-based; set-up: dose 10 mg/kg
[12] = system: Influenza A virus; assay: Survival of 10^2 EID50 influenza A/Vietnam/1203/04 H5N1 virus inoculated ferrets at 25 mg/kg after 24 hrs of inoculum for 5 days; format: functional, organism-based; set-up: dose 25 mg/kg
[13] = system: Influenza A virus; assay: Antiviral activity against 10^2 EID50 influenza A/Vietnam/1203/04 H5N1 virus inoculated ferrets assessed as day of death at 10 mg/kg after 24 hrs of inoculum for 5 days; format: functional
[14] = system: Influenza A virus; assay: Survival of 10^6 EID50 influenza A/turkey/15/06 H5N1 virus inoculated ferrets at 10 mg/kg twice daily after 24 hrs inoculum for 5 days; format: functional, organism-based; set-up: dose 10 mg/kg; conditions: Influenza A virus (A/Turkey/15/2006(H5N1))
[15] = system: Influenza A virus; assay: Antiviral activity against 10^6 EID50 influenza A/turkey/15/06 H5N1 virus inoculated ferrets assessed as viral titer in lungs at 10 mg/kg after 24 hrs of inoculum for 5 days; format: functional, Influenza A virus (A/Turkey/15/2006(H5N1))
[16] = system: Influenza A virus; assay: Antiviral activity against 10^6 EID50 influenza A/turkey/15/06 H5N1 virus inoculated ferrets assessed as viral titer in brain at 10 mg/kg after 24 hrs of inoculum for 5 days; format: functional, Influenza A virus (A/Turkey/15/2006(H5N1))
[17] = system: Influenza A virus; assay: Antiviral activity against 10^2 EID50 influenza A/Vietnam/1203/04 H5N1 virus inoculated ferrets assessed as day of death at 25 mg/kg after 24 hrs of inoculum for 5 days; format: functional
[18] = system: Influenza A virus; assay: Antiviral activity against 10^2 EID50 influenza A/Vietnam/1203/04 H5N1 virus inoculated ferrets assessed as maximal change in weight loss at 5 mg/kg after 4 hrs of inoculum for 5 days; format: functional
[19] = system: Influenza A virus; assay: Antiviral activity against 10 EID50 influenza A/Vietnam/1203/04 H5N1 virus inoculated ferrets assessed as increase in temperature at 5 mg/kg after 4 hrs of inoculum for 5 days; format: functional
[20] = system: Influenza A virus; assay: Antiviral activity against 10^2 EID50 influenza A/Vietnam/1203/04 H5N1 virus inoculated ferrets assessed as increase in temperature at 5 mg/kg after 4 hrs of inoculum for 5 days; format: functional
[21] = system: Influenza A virus; assay: Antiviral activity against 10^2 EID50 influenza A/Vietnam/1203/04 H5N1 virus inoculated ferrets assessed as weight loss at 10 mg/kg after 24 hrs of inoculum for 5 days; format: functional
[22] = system: Influenza A virus; assay: Antiviral activity against 10^2 EID50 influenza A/Vietnam/1203/04 H5N1 virus inoculated ferrets assessed as weight loss at 25 mg/kg after 24 hrs of inoculum for 5 days; format: functional
[23] = system: Influenza A virus; assay: Antiviral activity against 10^2 EID50 influenza A/Vietnam/1203/04 H5N1 virus inoculated ferrets assessed as increase in temperature at 10 mg/kg after 24 hrs of inoculum for 5 days; format: functional
[24] = system: Influenza A virus; assay: Antiviral activity against 10^2 EID50 influenza A/Vietnam/1203/04 H5N1 virus inoculated ferrets assessed as increase in temperature at 25 mg/kg after 24 hrs of inoculum for 5 days; format: functional
[25] = system: Influenza A virus; assay: Inhibition of 10^2 EID50 influenza A/Vietnam/1203/04 H5N1 virus replication in ferrets brain at 25 mg/kg after 24 hrs of inoculum for 5 days; format: functional, organism-based; set-up: dose 25 mg/kg
[26] = system: Influenza A virus; assay: Inhibition of influenza A/Vietnam/1203/04 virus replication in ferrets upper respiratory tract at 10 mg/kg twice daily after 24 hrs of inoculum for 5 days; format: functional, organism-based; set-up: dose 10 mg/kg
[27] = system: Influenza A virus; assay: Inhibition of 10^2 EID50 influenza A/Vietnam/1203/04 H5N1 virus replication in ferrets lungs at 10 mg/kg after 24 hrs of inoculum for 5 days; format: functional, organism-based; set-up: dose 10 mg/kg
[28] = system: Influenza A virus; assay: Inhibition of 10^2 EID50 influenza A/Vietnam/1203/04 H5N1 virus replication in ferrets liver at 10 mg/kg after 24 hrs of inoculum for 5 days; format: functional, organism-based; set-up: dose 10 mg/kg
[29] = system: Influenza A virus; assay: Inhibition of 10^2 EID50 influenza A/Vietnam/1203/04 H5N1 virus replication in ferrets spleen at 10 mg/kg after 24 hrs of inoculum for 5 days; format: functional, organism-based; set-up: dose 10 mg/kg
[30] = system: Influenza A virus; assay: Inhibition of 10^2 EID50 influenza A/Vietnam/1203/04 H5N1 virus replication in ferrets lungs at 25 mg/kg after 24 hrs of inoculum for 5 days; format: functional, organism-based; set-up: dose 25 mg/kg
[31] = system: Influenza A virus; assay: Inhibition of 10^2 EID50 influenza A/Vietnam/1203/04 H5N1 virus replication in ferrets liver at 25 mg/kg after 24 hrs of inoculum for 5 days; format: functional, organism-based; set-up: dose 25 mg/kg
[32] = system: Influenza A virus; assay: Inhibition of 10^2 EID50 influenza A/Vietnam/1203/04 H5N1 virus replication in ferrets spleen at 25 mg/kg after 24 hrs of inoculum for 5 days; format: functional, organism-based; set-up: dose 25 mg/kg
[33] = system: Influenza A virus; assay: Antiviral activity against 10^6 EID50 influenza A/turkey/15/06 H5N1 virus inoculated ferrets assessed as weight loss at 10 mg/kg twice daily after 24 hrs inoculum for 5 days; format: functional, Influenza A virus (A/Turkey/15/2006(H5N1))
[34] = system: Influenza A virus; assay: Antiviral activity against 10^6 EID50 influenza A/turkey/15/06 H5N1 virus inoculated ferrets assessed as increase in temperature at 10 mg/kg twice daily after 24 hrs inoculum for 5 days; format: functional, Influenza A virus (A/Turkey/15/2006(H5N1))

For `CCOC(=O)C1=C[C@@H](OC(CC)CC)[C@H](NC(C)=O)[C@@H](N)C1` [OSELTAMIVIR], the Activity [1] was “inactive”, the Activity [2] was “Active” and the Activity [3] was “Active”. It also gave an Activity [4] of over 21 days, an Activity [5] of 21 days and an Activity [6] of 8.8%. For the same molecule, the Activity [7] was “Active”, the Activity [8] was “inactive” and the Activity [9] was “inactive”. The Activity [10] was “Active”, the Activity [11] was “inactive” and the Activity [12] was “Active”. The Activity [13] was 7.3 days, the Activity [14] was “Active” and the log10EID50/g [15] was under 0.75. The log10EID50/g [16] was under 0.75, the Activity [17] was over 21 days and the Activity [18] was 20.4%. It also gave an Activity [19] of 5%, an Activity [20] of 3.4% and an Activity [21] of 22.1%. For the same molecule, the Activity [22] was 13.4%, the Activity [23] was 5.7% and the Activity [24] was 6%. For the same molecule, the Activity [25] was “inactive”, the Activity [26] was “inactive” and the Activity [27] was “Active”. The Activity [28] was “Active”, the Activity [29] was “Active” and the Activity [30] was “Active”. The Activity [31] was “Active”, the Activity [32] was “Active” and the Activity [33] was 17.9%. It also gave an Activity [34] of 6%.
